Data as given in BigSolDB 2.1.

c1nc[nH]n1
Conditions	solubility (mole fraction)
in ethanol, 283.18 K	0.131
in ethanol, 288.25 K	0.147
in ethanol, 293.21 K	0.164
in ethanol, 298.18 K	0.184
in ethanol, 303.15 K	0.205
in ethanol, 308.14 K	0.228
in ethanol, 313.21 K	0.253
in ethanol, 318.23 K	0.28
in ethanol, 323.22 K	0.308
in ethanol, 328.27 K	0.339
in ethanol, 333.28 K	0.371
in ethyl acetate, 283.21 K	0.0268
in ethyl acetate, 288.29 K	0.032
in ethyl acetate, 293.21 K	0.0365
in ethyl acetate, 298.19 K	0.041
in ethyl acetate, 303.18 K	0.0457
in ethyl acetate, 308.27 K	0.0513
in ethyl acetate, 313.2 K	0.0578
in ethyl acetate, 318.21 K	0.066
in ethyl acetate, 323.16 K	0.0759
in ethyl acetate, 328.17 K	0.0884
in ethyl acetate, 333.27 K	0.104
in ethyl formate, 283.21 K	0.0208
in ethyl formate, 288.23 K	0.0246
in ethyl formate, 293.29 K	0.0286
in ethyl formate, 298.24 K	0.0331
in ethyl formate, 303.26 K	0.0384
in ethyl formate, 308.17 K	0.0446
in ethyl formate, 313.24 K	0.0524
in ethyl formate, 318.27 K	0.0617
in ethyl formate, 323.31 K	0.073
in isopropanol, 283.17 K	0.129
in isopropanol, 288.21 K	0.144
in isopropanol, 293.16 K	0.159
in isopropanol, 298.23 K	0.176
in isopropanol, 303.27 K	0.193
in isopropanol, 308.19 K	0.211
in isopropanol, 313.24 K	0.232
in isopropanol, 318.22 K	0.254
in isopropanol, 323.27 K	0.278
in isopropanol, 328.2 K	0.304
in isopropanol, 333.19 K	0.332
in isopropanol, 338.18 K	0.363
in isopropanol, 343.26 K	0.397
in methyl acetate, 283.27 K	0.0968
in methyl acetate, 288.21 K	0.106
in methyl acetate, 293.19 K	0.117
in methyl acetate, 298.21 K	0.128
in methyl acetate, 303.2 K	0.141
in methyl acetate, 308.29 K	0.155
in methyl acetate, 313.18 K	0.171
in methyl acetate, 318.16 K	0.189
in methyl acetate, 323.24 K	0.21
in n-butyl acetate, 283.2 K	0.0141
in n-butyl acetate, 288.23 K	0.0166
in n-butyl acetate, 293.26 K	0.0202
in n-butyl acetate, 298.22 K	0.024
in n-butyl acetate, 303.24 K	0.0279
in n-butyl acetate, 308.17 K	0.032
in n-butyl acetate, 313.28 K	0.037
in n-butyl acetate, 318.21 K	0.0428
in n-butyl acetate, 323.16 K	0.0498
in n-butyl acetate, 328.24 K	0.0586
in n-butyl acetate, 333.19 K	0.0688
in n-butyl acetate, 338.18 K	0.0809
in n-butyl acetate, 343.23 K	0.0955
in n-butyl acetate, 348.18 K	0.113
in n-butyl acetate, 353.19 K	0.136
in n-butyl acetate, 358.18 K	0.167
in n-butyl acetate, 363.26 K	0.211
in n-propanol, 283.17 K	0.12
in n-propanol, 288.18 K	0.135
in n-propanol, 293.27 K	0.15
in n-propanol, 298.19 K	0.168
in n-propanol, 303.21 K	0.187
in n-propanol, 308.23 K	0.208
in n-propanol, 313.27 K	0.231
in n-propanol, 318.2 K	0.256
in n-propanol, 323.22 K	0.283
in n-propanol, 328.28 K	0.313
in n-propanol, 333.18 K	0.344
in n-propanol, 338.23 K	0.378
in n-propanol, 343.29 K	0.415
in propylene glycol, 283.16 K	0.174
in propylene glycol, 288.27 K	0.212
in propylene glycol, 293.26 K	0.249
in propylene glycol, 298.16 K	0.284
in propylene glycol, 303.19 K	0.319
in propylene glycol, 308.18 K	0.353
in propylene glycol, 313.2 K	0.386
in propylene glycol, 318.28 K	0.419
in propylene glycol, 323.21 K	0.451
in propylene glycol, 328.22 K	0.483
in propylene glycol, 333.23 K	0.514
in propylene glycol, 338.29 K	0.545
in propylene glycol, 343.21 K	0.574
in propylene glycol, 348.23 K	0.604
in propylene glycol, 353.24 K	0.633
